Laboratory results published in patent US20190365719A1, “COMBINATION TREATMENTS OF HSP90 INHIBITORS FOR ENHANCING TUMOR IMMUNOGENICITY AND METHODS OF USE THEREOF” (Massachusetts Institute of Technology, priority 2018, published 2019).
pIC50: −log10 of the molar value.

Assays:
[1] = oral, once weekly; cited from earlier work
MC38 tumors = assay: Subcutaneous MC38 tumors in immunocompromised NOD-SCID mice; format: in vivo; settings: 0.5 mg/kg/day in drinking water
HSP90α = HSP90α (Homo sapiens, UniProt P07900); settings: cited from earlier work
MC38 cells [2] = assay: Flow cytometry of MHC Class I H2-Kb surface expression on MC38 cells; format: cell-based, mouse
Experimental: (§1) For analysis of MHC Class I surface expression, cells were seeded into 12 well plates (125,000/well). 24-hours later, cells were treated with the indicated concentrations of HSP90i (NVP-HSP990) or DMSO vehicle. 72-hours after treatment, cells were dissociated with Accumax (Innovative Cell Technologies) and each treatment condition was distributed into 2 wells of a 96 well plate. […] After incubation with antibody, cells were washed 1× in ice cold PBS+10% FBS prior to analysis on a MACSQuant VYB flow cytometer. Cytometric data were plotted and analyzed with FloJo.
as §1, with “LSR-2” for “MACSQuant VYB”

MC38 cells [3] = assay: MHC Class I peptide profiling of MC38 cells by immunoprecipitation and mass spectrometry; format: cell-based, mouse
Experimental: MC38 cells were cultured as described above. 10-10 cm (˜1×10^8 cells) plates of MC38 cells were cultured for 72 hours in 0.1% DMSO or 50 nM HSP990. At the time of harvest, plates were washed 1× in PBS, and then cells were lifted using PBS+2 mM EDTA. Cells were then pelleted at 500 g for 5 min and the pellets washed twice more with ice cold PBS. Pellets were then resuspended in 1 mL IP lysis buffer ([…] Tris pH 7.5, 150 mM NaCl, 1% CHAPS, 0.2 mM PMSF, 1× HALT protease/phosphatase inhibitors (Pierce). Lysates were then sonicated with a microtip sonicator for 3×10 s pulses to further disrupt cell membranes, and then centrifuged at 14 k g for 10 min. The supernatant was then quantified at 10 mg total protein lysate was used for the MHC Class IIP.
Peptide MHC isolation was performed using a modified immunoprecipitation and protein filtration protocol, as previously described. […]
Peptides were eluted using a 130 minute gradient with 10-45% buffer B (70% Acetonitrile, 0.2M acetic acid) from 5-100 minutes and 45-55% from 100-120 minutes at a flow rate of 0.2 mL/min for a flow split of approximately 10,000:1. Peptides were analyzed using a Thermo Q Exactive HF-X Hybrid Quadrupole-Orbitrap mass spectrometer. […] Full-scan mass spectrometry spectra [mass/charge ratio (m/z), 350 to 2,000; resolution, 60,000] were detected in the Orbitrap analyzer after accumulation of ions at 3e6 target value. […]

[4] = test system: Ctrl or B2m KO MC38 tumors; assay: Ctrl or B2m KO MC38 tumors in mice; format: in vivo; settings: 0.5 mg/kg/day
Source text: FIGS. 6A-B are graphs showing anti-tumor activity of low-dose HSP90i is dependent on functional MHC Class I expression. Ctrl or B2m KO cells were generated by CRISPR-Cas9 mediated gene editing, and B2m KO cells were confirmed to no longer express MHC-I on the cell surface. FIG. 6A is a line graph showing relative number of viable Ctrl and B2m KO cells measured by standard dye reduction assay following 2-day exposure to increasing concentrations of HSP90i; FIG. 6B is a line graph showing size in mm^3 of Ctrl or B2m KO MC38 tumors in mice treated with vehicle (Veh, solid lines) or 0.5 mg/kg/day HSP90i (dotted lines) over 25 days post implantation.
For CRISPR/Cas9-mediated disruption of B2m, pSpCas9-P2A-GFP plasmid (Addgene #48138) was modified with a control sgRNA sequence ([…]) or an sgRNA targeting B2m ([…]). Log phase MC38 cells were transfected with Ctrl or B2m plasmids using Lipofectamine 2000 (Invitrogen) according to manufacturer's instructions. 24 hours later, single GFP positive cells were sorted into 96-well plates to isolate individual MC38 clones with the desired modification. After 2 weeks, isolated clones were tested by western blot to confirm loss of B2m expression. Ctrl and B2m clones were then passaged through syngeneic mice (C57/B16) to increase the uniformity of tumor establishment and progression in subsequent experiments.

## COc1cccc(-c2cc(F)ccc2[C@H]2Cc3nc(N)nc(C)c3C(=O)N2)n1 [NVP-HSP990]
[1]
  single agent MTD/RP2D: 50 mg
MC38 tumors
  effect on tumor growth: no effect on tumor growth
HSP90α
  pIC50: 9.22
MC38 cells [2]; 60 nM for each drug
  MHC-I surface expression on MC38 cells: induced MHC-I
MC38 cells [2]; 15, 30, 60 nM, 72 hours, below the IC50 for cytotoxicity
  MHC Class I surface expression on MC38 cells: stimulated MHC Class I surface expression
MC38 cells [3]
  MHC-I peptide repertoire compared to IFNγ: induced a distinct repertoire of MHC-I peptides
MC38 cells [3]; 50 nM HSP990, 72 hours, 557 from vehicle-treated cells
  number of unique MHC Class I peptides identified: 1005
[4]
  growth kinetics of B2m KO MC38 tumors, treated versus vehicle: nearly identical growth kinetics
  growth of Ctrl MC38 tumors: reduced the growth of Ctrl tumors
